US10611799B2, “Anti-endotoxin polypeptide” (priority 2017, dated 2020)
“Also recorded” adds a separate entry of the source. No end group written: not given here.

Assays:
[1] = system: gram-positive and negative bacteria; assay: Antibacterial activity and salt resistance, broth microdilution (MIC); assay type: cell-based
Method: (§1) The antibacterial activities were determined by the standard broth microdilution method of National Committee for Clinical Laboratory Standards with the MH and LYM broth. MH or LYM broth with 50, 100, 200, or 300 mM NaCl (containing 5.4 mM KCl, 5.6 mM Na2HPO4, 0.5 mM MgSO4, and 1.0 mM sodium citrate, 0.4 mg of ZnCl2, 2.0 mg of FeCl3.6H2O, 0.1 mg of CuSO4.5H2O, 0.1 mg of MnSO4.H2O, 0.1 mg of Na2B4O7.10H2O, 700 mg of amino acid mixtures without tryptophan (Clontech), and 20 mg of L-Tryptophan, 2% vitamin mixture (100×, Sigma) and glucose at final concentration of 2%) were used to serially dilute the anti-endotoxin polypeptide of the present invention to obtain anti-endotoxin polypeptide solutions with a concentration ranging from 3,200 to 100 μg/mL.
(§2) 1 μL of peptide solutions were mixed with 99 μL inoculums (5×10^5 CFU/mL) in polypropylene 96-well plates, respectively. The turbidity at OD600 nm was determined by ELISA plate reader (Thermo Max, Molecular Devices, Sunnyvale, Calif.). The absorbance of culture medium and inoculum without peptides were used as the negative and positive control, respectively. […] All peptides were tested in triplicate. […] KR12AGPKR6 peptide was very effective against bacteria in LYM broth condition (MIC=about 2 μg/mL).

[2] = LPS aggregation, dynamic light scattering; settings: peptide 8 and 16 μg/mL, LPS 25 μM
Method: The LPS molecule were dissolved in chloroform:methanol (2:1) then the stock solution was sonicated at 40° C. for 20 minutes and then kept at 4° C. overnight. The stock solution were diluted to 25 μM by using 20 mM sodium phosphate buffer with 150 mM sodium chloride and then at 4° C. overnight for use. Peptide concentration was diluted to 8 or 16 μg/mL. After the LPS solution was interacted with the peptide solution, the particle size and distribution analysis was measured by dynamic light scattering in Malvern Zetasizer ZS (Malvern, UK).

Acinetobacter sp. = assay: Antibacterial activity, broth microdilution, Acinetobacter sp.; assay type: cell-based
Method: as §1, §2

[3] = system: LPS (Control Standard Endotoxin); assay: Binding and neutralization of LPS, Limulus Amebocyte Lysate (LAL) assay; assay type: biochemical; settings: peptide 8-128 μg/mL, CSE 5EU
Method: The abilities of the anti-endotoxin polypeptides to bind and neutralize LPS were assessed using Limulus Amebocyte Lysate (LAL) assay (Cape Cod Inc, East Falmouth, Mass., USA). 25 μL of different peptide concentration (128, 64, 32, 16, and 8 μg/mL) were mixed with 25 μL CSE (Control Standard Endotoxin) (5EU) in a 96-well plate, and 50 μL of Pyrochrome® reagent was added to wells immediately. The absorbance at 405 nm was measured by microplate reader at 37° C. for 25 minutes.

[4] = Peptide-induced calcein leakage of POPC/LPS LUVs
Method: (§3) In this embodiment, the large unilamellar vesicles (LUVs) of POPC/LPS (POPC:LPS=12.5:1 mol/mol), POPC/cholesterol (POPC:cholesterol=2:1 mol/mol), and POPC:POPG (POPC:POPG=3:1 mol/mol) were prepared by the extrusion method with Avanti small-volume extrusion apparatus (Avanti Polar Lipid). Calcein-filed LUVs were prepared by calcein-containing buffer (70 mM calcein and 10 mM Tris at pH 7.4). Peptide-induced calcein leakages were measured by Perkin-Elmer luminescence spectrofluorimeter at excitation and emission wavelengths of 496 and 515 nm, respectively. Leakage is expressed as a percentage relative to the total amount of dye released by addition of 100 mg/mL of Triton X-100, which represented 100% leakage (the maximum fluorescence intensity).
(§4) The degree of leakage induced by various concentrations of polypeptides was estimated by: % leakage=(F−F0)/(Fr−F0)×100%, wherein the F0 is the initial fluorescence intensity observed without peptide, and Fr is the fluorescence intensity of 100% leakage.

[5] = Peptide-induced calcein leakage of POPC/POPG LUVs
Method: as §3, §4

[6] = POPC/LPS LUVs aggregation, dynamic light scattering; settings: peptide 8 and 16 μg/mL
Cytotoxicity, MTT assay = assay type: cell-based; settings: mouse, J744A.1 cells, 64 μg/mL, read-out: survival rate
Method: In this embodiment, the cytotoxicity was evaluated by MTT assay. J744A.1 cells were seeded in a 96-well plate with 10^4 cells/100 μL/well and incubated for 24 hours. After removing the medium, 100 μL of fresh medium containing anti-endotoxin polypeptide (2 to 64 μg/mL) was added to the wells. After 24 hours incubation, the fresh medium with 0.5 mg/mL MTT was added and incubated for 3 hours. After the medium/MTT was removed, DMSO was added at 100 μL for dissolving the formazan crystal. Cell survival rate was calculated by measuring the absorbance at 450 nm using Multi-labeled Microplate Reader (VICTOR 3).

[7] = system: NO production in J744A.1 cells; assay: Inhibition of LPS-induced NO production (Griess reagent); assay type: cell-based; settings: LPS 150 ng/mL, peptide 2-32 μg/mL, 24 hours
Method: (§5) J744A.1 cells (3×10^5 cells) were seeded in a 24-well plate and incubated for 24 hours. Cells were washed by PBS and LPS (E. coli 026:B6 (SIGMA, 150 ng/mL)) and the anti-endotoxin polypeptide of the present invention (2-32 μg/mL) were added to the wells. After 24 hours treatment, culture supernatant was harvested and centrifuged at 1,000 rpm for 10 minutes. 50 μL of culture supernatant was mixed with 50 μL Griess reagent (SIGMA) in a 96-well plate and incubated at room temperature for 10 minutes. The absorbance at 540 nm was measured and the NO concentration was calculated. Additionally, the concentration of TNF-α in the culture supernatant was evaluated using ELISA kits (eBiosciences).

[8] = system: E. coli O26:B6 LPS-induced endotoxemia; assay: Mouse model of endotoxemia; assay type: in vivo, C57BL/6 mice; settings: 18 mg/kg LPS plus 10 mg/kg peptide i.p.
Method: 5-week old male C57BL/6 mice were purchased from National Laboratory Animal Center (Taiwan). Mice were divided into three groups (five in each group) with intraperitoneal (i.p.) injection of (a) 18 mg/kg of body weight E. coli O26:B6 LPS, (b) 18 mg/kg body weight LPS plus 10 mg/kg peptide, and (c) no treatment. Blood was collected via tail vein 1.5 hours after injection. Whole blood was centrifuged at 3,000 rpm at 4° C. for 10 minutes. After 24 hours, all mice were sacrificed. The lungs were removed and fixed in 4% formaldehyde buffer, and deparaffinized in UltraClear buffer (J. K. Baker) and graded ethanol. Histology of lung sections was performed by hematoxylin and eosin (H&E) staining. Tissue images were captured using light microscope (Eclipse E400, Nikon) with digital microscopy camera (AxioCam ICc 5, ZEISS).

[9] = system: TNF-α release in J744A.1 cells; assay: Inhibition of LPS-induced TNF-α release (ELISA); assay type: cell-based; settings: LPS 150 ng/mL, peptide 2-32 μg/mL, 24 hours
Method: as §5

[10] = relative to Triton X-100 = 100%

Substance | antibacterial activity ([1]; 300 mM salt condition) | LPS aggregation and particle size [2] | antibacterial effectiveness compared to other bacteria strain (Acinetobacter sp.) | LPS-neutralizing activity (LAL assay) [3] | calcein leaking activity [4] | calcein leaking activity [5] | antibacterial activity ([1]; MH or LYM broth) | antibacterial activity ([1]; 200 mM NaCl) | antibacterial activity ([1]; low NaCl condition) | minimum inhibitory concentration (MIC) ([1]; high salt conditions) | POPC/LPS LUVs aggregation and particle size [6] | viability at 24 h, 64 µg/mL (Cytotoxicity, MTT assay) | inhibition of NO production [7] | level of TNF-α in blood ([8]; blood 1.5 hours after injection) | proliferation of alveolar epithelial cells and pulmonary hemorrhage (lung histology) ([8]; lungs after 24 hours, H&E) | calcein leakage [4, 10] | inhibition of TNF-α release [9] | calcein leakage [5, 10]
KRIVQRIKDFLRAGPIKDFLR [KR12AGPKR6] | inactive totally | did not aggregate LPS and change particle size | more effective | only small effects | show leaking activities; also recorded: does-dependent calcein leaking activities | show leaking activities; also recorded: does-dependent calcein leaking activities | – | – | – | – | – | – | – | – | – | – | – | –
KRIVQRAGPIKDFLR (The anti-endotoxin polypeptide synthesized from the laboratory) [KR15AGP] | – | did not aggregate LPS and change particle size | – | only small effects | – | – | did not show any activity | – | – | – | – | – | – | – | – | – | – | –
KRIVQRIKDFLRAGPRRLVRI (The anti-endotoxin polypeptide synthesized from the laboratory) [KR12AGPVR6] | – | did not aggregate LPS and change particle size | more effective | only small effects | show leaking activities; also recorded: does-dependent calcein leaking activities | show leaking activities; also recorded: does-dependent calcein leaking activities | – | lost its activities | high activities | – | – | – | – | – | – | – | – | –
Ac-KRIVQRIKDFLRAGPRRWWRW-NH2 (N-terminus and C-terminus assumed) [KR12AGPWR6] | – | promoted | more effective | better LPS-neutralizing activity; also recorded: neutralize downstream reaction dose-dependently | show leaking activities; also recorded: does-dependent calcein leaking activities | show leaking activities; also recorded: does-dependent calcein leaking activities | – | – | – | 2 to 4 µg/mL | promoted | ~70% | inhibit concentration-dependently | significantly lower; also recorded: suppress | significantly decreased; also recorded: improve | about 80% | inhibited | ~70%
